Laboratory results: publication PMC7429848, “XJB-5-131 inhibited ferroptosis in tubular epithelial cells after ischemia−reperfusion injury” (Cell Death & Disease, 2020)

Assays:
[1] = tested on: renal I/R injury; test: Renal I/R model: kidney injury and TEC repair (gross appearance, PAS, KIM-1, Ki67, Sox9); type: in vivo; conditions: mice
Experimental: (§1) After a minimum of 7 days of acclimation, the mice were anesthetized with a 1% sodium pentobarbital solution (6 mL/kg) by intraperitoneal injection and then placed in a prone position to maintain their body temperature at 36.8–37.2 °C during surgery. After a unilateral dorsal incision to expose the kidneys, the renal artery was occluded using a microvascular clamp (RoBoz Surgical Instrument Co, Gaithersburg, MD, USA) for 30 min. After that, the clamps were removed, and the animals were allowed to recover with free access to food and water.
(§2) To study the effects of XJB-5-131 on I/R injury, the mice were randomly allocated into the Vehi group and XJB group. The mice were injected intraperitoneally (i.p.) with XJB-5-131 (10 mg/kg) or the respective control 30 min prior to ischemia and for 3 consecutive days after surgery.
Paraffin-embedded renal sections (4 μm) were subjected to PAS staining to detect morphological changes in the cortex and medulla, and were scored in a blinded fashion using a semiquantitative design as previously reported.
(§3) Paraffin-embedded renal sections (4 μm) were deparaffinized in xylene, rehydrated in graded alcohol and blocked with 10% goat serum for 30 min. Mouse monoclonal anti-GSDMD (1:50, Santa), mouse monoclonal anti-4-HNE (1:100, R&D), rabbit polyclonal anti-MLKL, goat polyclonal anti-KIM-1 (1:800, R&D), rabbit polyclonal anti-Ki67 (1:100, Abcam), rabbit polyclonal anti-ACSL4 (1:200, Abcam), rabbit polyclonal anti-CD3 (1:100, Dako), rabbit polyclonal anti-ly6G (1:100, Abcam), rat polyclonal anti-F4/80 (1:50, Abcam), and rabbit polyclonal anti-Sox9 (1:100, Abcam) primary antibodies were incubated at 4 °C overnight and subsequently visualized with HRP-conjugated secondary antibody for IHC and fluorescently labeled secondary antibodies for IF. Staining was carefully quantified in each slide by capturing 15 randomly chosen fields in a blind manner, and the data were analyzed using Image Pro Plus software (Media Cybernetics, USA).

[2] = tested on: ferroptosis in TECs; test: Renal I/R model: ferroptosis readouts (mitochondrial morphology, GSH-Px, MDA, 4-HNE, GPX4, ACSL4); type: in vivo; conditions: mice, unilateral I/R, 10 mg/kg i.p.
Experimental: as §1, §2
The renal cortices were cut into small pieces (1 mm^3) and fixed with 2.5% glutaraldehyde. Then the samples were dehydrated and embedded. Ultra-thin sections were stained and observed with a transmission electron microscope (Tecnai G^2 20 TWIN, FEI, USA).
as §3
The levels of GSH-Px in kidneys were determined using GSH-Px assay kit, respectively (Beyotime China) in line with the manufacturer’s instructions.
Quantification of MDA levels in kidney tissue after I/R or sham operation was performed by using an MDA assay kit (Beyotime).
(§4) Renal tissues were lysed in RIPA lysis buffer containing protease inhibitor. Equal amounts of proteins (50 μg) were loaded and separated by 10% SDS-PAGE. The proteins were transferred onto polyvinylidene fluoride membranes (Millipore, USA). The membranes were blocked with 5% skimmed milk in Tris Buffered saline Tween (TBST) for 1 h at room temperature and were then incubated with appropriate primary antibodies against GPX4 (1:10000, Abcam), ACSL4 (1:10000, Abcam, UK), MLKL (1:1000, Abgent), p-MLKL (1:1000, Abcam), RIPK3 (1:1000, ABclonal), p-RIPK3 (1:1000, Abcam), GSDMD (1:1000, Santa) and GAPDH (1:5000, ABclonal) at 4 °C overnight. The blots were washed with TBST for 5 min and incubated with HRP-conjugated secondary antibodies (1:5000; ABclonal) for 1 h. After washing with TBST, the blots were visualized by the enhanced chemiluminescence method (ECL, Bio-Rad). The relative intensity of the target band was normalized to the corresponding loading control intensity and quantified by using ImageJ (NIH, USA).

[3] = parameters: method as in PMID 26415224; conditions: cited from earlier work
[4] = Whole-body and organ fluorescence imaging and kidney frozen sections after BODIPY-FL-XJB-5-131 injection; type: in vivo; conditions: mice, BODIPY-FL-labeled XJB-5-131 i.v.
Experimental: (§5) The mice were sacrificed at 0.25, 0.5, 1, 2, 4 and 6 h after i.v. bolus administration of XJB-5-131. […] The concentration of XJB-5-131 in the liver was not obtained. The half-life (t1/2) was approximately 2 h. The area under the concentration–time curve (AUC0−6 h) of plasma was 322.7 µg·h/ml. The AUC0−6 h in the kidney was approximately […] compared with that of the AUC0−6 h in the brain (234.7 µg·h/g versus 4.1 µg·h/g). […] Moreover, the concentration in the kidney was almost close to the plasma concentration and lasted much longer, which predicted the therapeutic value of XJB-5-131 in kidney diseases. Next, we intravenously injected 3 mg/kg BODIPY-FL-XJB-5-131 into mice to explore the distribution of XJB-5-131 in the kidney, and whole-body fluorescence was analyzed at 0 and 30 min after injection.
Fig. 5 Pharmacokinetics and distribution analysis of XJB-5-131 in vivo and in vitro. a The structure of XJB-5-131. b The tissue concentrations of XJB-5-131 in mice. Mice were injected with XJB-5-131 and sacrificed after 0.25, 0.5, 1, 2, 4 and 6 h. Plasma, kidney, liver and brain were collected for in vivo-based pharmacokinetic assays by LC-MS/MS. […] Whole-body fluorescence imaging was performed at 0 and 30 min, and the fluorescence intensity of various organs (heart, kidney, liver and brain) was measured after 30 min. […]

[5] = tested on: renal I/R injury; test: Renal I/R model: intrarenal inflammatory cell infiltration and proinflammatory cytokine mRNA; type: in vivo; conditions: mice, unilateral I/R, 10 mg/kg i.p., vs I/R group
Experimental: as §1, §2, §3
Total RNA was extracted from kidney tissue using TRIzol reagent (Takara, Japan). Real-time PCR was carried out using a LightCycler 480 system (Roche, Pleasanton, CA, USA). Relative mRNA for RANTES, MCP-1, IL-6 and GAPDH was quantified in triplicate by SYBR Green RT-PCR.

[6] = In vivo-based pharmacokinetic model, LC-MS/MS of plasma and tissue homogenates; parameters: species or system mice; conditions: for AUC0–6 h / AUC0–∞ / MRT0-6h / MRT0–∞ / t1/2 / tmax / Cmax: 3 mg/kg i.v. bolus
Experimental: as §5
Mice were injected with 3 mg/kg XJB-5-131 and were sacrificed at 0.25, 0.5, 1, 2, 4 and 6 h after injection. Plasma, kidney, liver and brain were collected to assess the XJB-5-131 concentration by LC-MS/MS. For plasma samples, an aliquot of 8 µL was protein precipitated with 160 µL IS, and the mixture was vortex-mixed and centrifuged at 12,000 × g for 15 min at 4 °C. Seventy microliters of supernatant was transferred to a 96-well plate and centrifuged for 5 min at 3220 × g and 4 °C, and then 6 µL of supernatant was directly injected for LC-MS/MS analysis. For tissue samples, tissue homogenates (kidney, brain and liver) were prepared by homogenizing tissue with threefold volume of homogenization solution (MeOH/15 mM PBS = 1:2). An aliquot of 20 µL was protein precipitated with 400 µL IS, and the mixture was vortex-mixed and centrifuged at 12,000 rpm for 15 min at 4 °C. Seventy microliters of supernatant was transferred to a 96-well plate and centrifuged for 5 min at 3220 × g and 4 °C, and then 6 µL of supernatant was directly injected for LC-MS/MS analysis.

[7] = tested on: HT-1080 cells; parameters: method as in PMID 27725964; conditions: cited from earlier work
[8] = tested on: RIPK3, MLKL, GSDMD; test: Renal I/R model: necroptosis and pyroptosis markers by western blot; type: in vivo; conditions: mice, unilateral I/R, with or without XJB-5-131
Experimental: as §1, §2, §4

[9] = stated without reference; cited from earlier work
[10] = unilateral I/R, 10 mg/kg i.p., day 3, vs I/R group

SMILES: CC(C)C[C@@H](/C=C/[C@H](Cc1ccccc1)C(=O)N1CCC[C@H]1C(=O)N[C@H](C(=O)N[C@@H](CCCNC(=O)OCc1ccccc1)C(=O)NC1CC(C)(C)N([O])C(C)(C)C1)C(C)C)NC(=O)OC(C)(C)C [XJB-5-131]
- benefit at 10mg/kg versus 2.5mg/kg or 20mg/kg ([1]; I/R, day 3, PAS staining): better beneficial than other doses
- kidney injuries and casts (PAS staining) ([1]; I/R, day 3, vs I/R+Vehicle): ameliorated
- KIM-1 expression (immunofluorescent staining) [1, 10]: decreased
- Sox9 in TECs [1, 10]: dramatically activated
- congestion area at the junction of cortex and medulla [1, 10]: reduced
- loss of tubules (PAS tubular damage) [1, 10]: alleviated
- number of Ki67-positive nuclei in TECs [1, 10]: much higher number
- ratio of injured kidney weight to body weight [1, 10]: decreased
- 4-HNE staining [2]: less accumulation of lipid peroxidation
- I/R-induced increase in ACSL4 expression (western blot) [2]: inhibited
- renal GPX4 expression (western blot) [2]: significantly improved
- resistance of mitochondria in TECs to I/R injury (electron microscopy) [2]: increased resistance
- GSH-Px level in kidney ([2]; day 3): increased levels
- MDA level in kidney ([2]; day 3): decreased levels
- conversion into XJB-hydroxylamine in situ [3]: easily converted into XJB-hydroxylamine
- cell type distribution in the kidney (fluorescence microscopy of frozen sections) [4]: majority of XJB-5-131-positive cells were kidney TECs
- IL-6 mRNA expression in kidney [5]: suppressed
- MCP-1 mRNA expression in kidney [5]: suppressed
- RANTES mRNA expression in kidney [5]: suppressed
- infiltration of inflammatory cells in the kidney (ly6G, CD3, F4/80 positive cells) [5]: reduced
- AUC0–6 h ([6]; mice, brain): 4052 ng·h/g
- AUC0–∞ ([6]; mice, brain): 4859 ng·h/g
- MRT0-6h ([6]; mice, brain): 3.14 h
- MRT0–∞ ([6]; mice, brain): 1.98 h
- t1/2 ([6]; mice, brain): 2.07 h
- tmax ([6]; mice, brain): 0.25 h
- Cmax ([6]; mice, brain and plasma): 2353 ng/g
- AUC0–6 h ([6]; mice, kidney): 234,683 ng·h/g
- AUC0–∞ ([6]; mice, kidney): 255,150 ng·h/g
- Cmax ([6]; mice, kidney): 261,067 ng/g
- MRT0-6h ([6]; mice, kidney): 2.05 h
- MRT0–∞ ([6]; mice, kidney): 1.42 h
- t1/2 ([6]; mice, kidney): 2.23 h
- tmax ([6]; mice, kidney): 0.25 h
- AUC0–6 h ([6]; mice, plasma): 322,745 ng·h/mL
- AUC0–∞ ([6]; mice, plasma): 364,783 ng·h/mL
- Cmax ([6]; mice, plasma): 186,667 ng/mL
- MRT0-6h ([6]; mice, plasma): 2.65 h
- t1/2 ([6]; mice, plasma): 1.77 h
- tmax ([6]; mice, plasma): 0.25 h
- half-life (t1/2) ([6]; mice, i.v.): approximately 2 h
- plasma-tissue drug transfer ([6]; mice, i.v.): fast
- plasma stability ([6]; mice, i.v., in vivo PK): superior plasma stability
- AUC0−6 h ([6]; mice, i.v., kidney): 234.7 µg·h/g
- calculated maximal concentration (Cmax) ([6]; mice, i.v., kidney): 261.1 µg/g
- AUC0−6 h ([6]; mice, i.v., kidney and brain): 4.1 µg·h/g
- AUC0−6 h ([6]; mice, i.v., plasma): 322.7 µg·h/mL
- calculated maximal concentration (Cmax) ([6]; mice, i.v., plasma): 186.7 µg/mL
- time of Cmax after vein injection ([6]; mice, i.v., plasma, kidney and brain): 15 min
- stability in liver homogenate ([6]; mouse liver homogenate, not detected by LC-MS/MS): unstable
- effect on ferroptosis [7]: anti-ferroptotic effects
- cleavage of GSDMD (GSDMD-N) [8]: no statistically significant difference
- expression of phosphorylated MLKL [8]: no difference
- expression of phosphorylated RIPK3 [8]: no difference

SMILES: CCOC(=O)c1ccc(NC2CCCCC2)c(N)c1 [Fer-1, ferrostatin-1]
- stability in plasma [9]: poor
